Data taken from ChEMBL document CHEMBL1649478, “Comparison of tigecycline and vancomycin for treatment of experimental foreign-body infection due to methicillin-resistant Staphylococcus aureus” (Antimicrob Agents Chemother, 2009).
Values after ≈ are worked out from the molar mass of the structure shown.

Legend:
[1] = system: Staphylococcus aureus; test: Antibacterial activity against methicillin-resistant Staphylococcus aureus MRG3 by broth microdilution method; assay type: functional
[2] = Drug level in body fluid of Wistar rat infected with methicillin-resistant Staphylococcus aureus MRG3 at 7 mg/kg, sc BID measured on day 4 postdose; assay type: ADME, organism-based; design: dose 7 mg/kg, route subcutaneous; details: in vivo
[3] = Drug level in body fluid of Wistar rat infected with methicillin-resistant Staphylococcus aureus MRG3 at 7 mg/kg, sc BID measured on day 7 postdose; assay type: ADME, organism-based; design: dose 7 mg/kg, route subcutaneous; details: in vivo
[4] = system: Plasma; test: Drug level in plasma of Wistar rat infected with methicillin-resistant Staphylococcus aureus MRG3 at 7 mg/kg, sc BID measured on day 4 postdose; assay type: ADME, organism-based; design: dose 7 mg/kg, route subcutaneous; details: in vivo
[5] = system: Staphylococcus aureus; test: Antibacterial activity against methicillin-resistant Staphylococcus aureus MRG3 assessed as log decrease in bacterial count at 1 to 4 ug/ml by broth microdilution method; assay type: functional
[6] = system: Staphylococcus aureus; test: Antibacterial activity against methicillin-resistant Staphylococcus aureus MRG3 infected in Wistar rat assessed as bacterial load in body fluid at 7 mg/kg, sc BID after 1 day; assay type: functional; details: route subcutaneous
[7] = system: Staphylococcus aureus; test: Antibacterial activity against methicillin-resistant Staphylococcus aureus MRG3 infected in Wistar rat assessed as decrease in bacterial load in body fluid at 7 mg/kg, sc BID after 8 days; assay type: functional; details: route subcutaneous
[8] = system: Staphylococcus aureus; test: Bactericidal activity against methicillin-resistant Staphylococcus aureus MRG3 by broth microdilution method
[9] = Cmax in body fluid of Wistar rat infected with methicillin-resistant Staphylococcus aureus MRG3 at 50 mg/kg, sc measured on day 4 postdose; assay type: ADME, organism-based; design: dose 50 mg/kg, route subcutaneous
[10] = Cmin in body fluid of Wistar rat infected with methicillin-resistant Staphylococcus aureus MRG3 at 50 mg/kg, sc measured on day 4 postdose; assay type: ADME, organism-based; design: dose 50 mg/kg, route subcutaneous; details: in vivo
[11] = system: Staphylococcus aureus; test: Antibacterial activity against methicillin-resistant Staphylococcus aureus MRG3 infected in Wistar rat assessed as bacterial load in body fluid at 50 mg/kg, sc after 1 day; assay type: functional; details: route subcutaneous
[12] = system: Staphylococcus aureus; test: Antibacterial activity against methicillin-resistant Staphylococcus aureus MRG3 infected in Wistar rat assessed as decrease in bacterial load in body fluid at 50 mg/kg, sc after 8 days; assay type: functional; details: route subcutaneous

SMILES | MIC [1] [µg/mL] | Drug uptake [2] [µg/mL] | Drug uptake [3] [µg/mL] | Drug uptake [4] [µg/mL] | log10CFU/ml [5] | log10CFU/ml [6] | log10CFU/ml [7] | MBC [8] [µg/mL] | Cmax [9] [ng/mL] | Cmin [10] [ng/mL] | log10CFU/ml [11] | log10CFU/ml [12]
CN(C)c1cc(NC(=O)CNC(C)(C)C)c(O)c2c1C[C@H]1C[C@H]3[C@H](N(C)C)C(O)=C(C(N)=O)C(=O)[C@@]3(O)C(O)=C1C2=O [TIGECYCLINE] | 0.5 (≈ 0.854 µM) | 0.39 | 0.33 | 1.87 | 2 | 6.92 | 0.62 | – | – | – | – | –
CN[C@H](CC(C)C)C(=O)N[C@H]1C(=O)N[C@@H](CC(N)=O)C(=O)N[C@H]2C(=O)N[C@H]3C(=O)N[C@H](C(=O)N[C@H](C(=O)O)c4cc(O)cc(O)c4-c4cc3ccc4O)[C@H](O)c3ccc(c(Cl)c3)Oc3cc2cc(c3O[C@@H]2O[C@H](CO)[C@@H](O)[C@H](O)[C@H]2O[C@H]2C[C@](C)(N)[C@H](O)[C@H](C)O2)Oc2ccc(cc2Cl)[C@H]1O [VANCOMYCIN] | – | – | – | – | – | – | – | 2 (≈ 1.38 µM) | 12000 | 2000 | 6.7 | 0.76
